Assay results taken from US11491105B2, “Methods of treating microbial infections, including mastitis” (priority 2013, dated 2022).
≈ marks a conversion by molar mass, not a printed value.

Assays:
[1] = system: bovine mastitis isolates; assay: Minimum inhibitory concentration assay (Example 3); type: cell-based; details: for MIC90: 51 Australian bovine mastitis isolates
Source text: Fifty-one dairy bovine mastitis isolates, encompassing a variety of bacterial species, were isolated from milk samples collected from dairy farms in rural South Australia by the University of Adelaide Ambulatory Clinic. Cellular morphology observed from Gram stains and catalase testing was used to differentiate Staphylococcus, Streptococcus and Corynebacterium species from Gram-negative species. Further biochemical testing including coagulase, Lancefield grouping, esculin hydrolysis and CAMP tests were used to identify the isolates to species level. Where biochemical test results were not definitive in identifying species, amplification and sequencing of the 16S ribosomal RNA gene was used to confirm the identity of the isolates.
Minimum inhibitory concentration tests were performed in the manner outlined by the CLSI (CLSI 2012). Test compounds were dispensed into a 96-well microtitre tray containing 90 μl of CAMHB in 90 μl volumes and serial diluted to obtain a concentration gradient ranging from 128 μg/ml to 0.25 μg/ml (see FIG. 24). For Streptococcus species, CAMHB was replaced with a CAMHB supplement with 4% lysed-sheep blood (4% LSB:CAMHB). 4% LSB:CAMHB was prepared by mixing 5 ml sheep blood to 5 ml milliQ water, and repeated freezing at −20° C. and thawing, followed by centrifuged for 20 min at 7000 rpm. 7 ml of the supernatant was removed and added to 93 mL of CAMB.
Bacterial suspensions were prepared by emulsifying fresh colonies obtained from an overnight culture on Sheep Blood Agar (SBA) in 4 mls of 9.1 g/l physiological saline to an optical density read at 600 nm (OD600nm) between 1.00 and 1.20. Standardised bacterial suspensions were diluted 1:10 in physiological saline and dispensed into all wells, excluding the negative control wells, in 10 μL volumes giving a final concentration of between 4×10^5 and 5×10^5 CFU/mL in each well. 96-well microtitre trays were incubated for 24 hours at 37° C. in 5% CO2 and then assessed both visually and using OD readings from a microplate reader at a wavelength of 600 nm. These tests were performed in duplicate and repeated if discrepancies in MIC values were observed between replicates.
The minimum inhibitory concentration (MIC) was determined to be the lowest concentration of antibiotic that prevented growth of bacteria both visually and using OD readings. MIC values were collated and used to determine the lowest concentration of each compound effective against 50% and 90% of isolates, known as the MIC50 and MIC90 respectively. These values as well as the range of MIC values were then used for direct comparisons between test compounds and for general comparisons with ampicillin.

[2] = system: ATCC 49775 reference strain; assay: Macrodilution time-kill assay; type: cell-based, Staphylococcus; details: 24 hours
Experimental: Due to the detection limit of the OD measurements, the time-kill assays were also performed in macrodilution. In 15 mL tubes, 9 mL volumes of the test compounds in CAMHB were prepared at one, four and eight times the MIC concentration and 9 mL volumes of ampicillin were prepared in CAMHB at one and four times the MIC. 1 mL of a 4 to 5×10^6 bacterial suspension (as prepared for MIC testing) was added to each of the tubes as well as a growth control tube containing only 9 mL of CAMHB. These tubes were incubated at 37° C. in an orbital shaker rotating at 100 rpm for 24 hours. At 0, 1, 4, 8, 12 and 24 hours after addition of the bacteria, 100 μL samples were removed from each tube and serial diluted in 9.1 g/L saline solution. The dilutions were then plated in duplicate onto plate count agar and incubated for 24 hours at 37° C. After incubation, viable counts were obtained from the number of colonies visible on the agar and these were used to calculate the number of CFU/mL at each time point. For the macrodilution time-kill analysis, only the ATCC 49775 reference strain and MRSA 9 were assessed in order to further investigate the antibacterial activity against methicillin-resistant strains. These macrodilution time-kill assays were independently repeated and bactericidal activity was defined as a ≥3 log decrease in the number of CFU/mL.

[3] = system: MRSA 9; assay: Microdilution time-kill assay; type: cell-based, Staphylococcus aureus; details: 1×MIC; increase evident after 24 hours
Experimental: Following assessment of MIC and MBC results, two compounds were chosen for analysis using microdilution time-kill assays, LP 1369 and LP 6315 and these were compared to ampicillin. Time-kill assays were performed according to the M26-A guidelines of the CLSI, with modifications. The test compounds and ampicillin were serial diluted in CAMHB across the rows of a 96 well plate and a bacterial suspension was prepared and added in the same manner as the MIC testing. […] The time points assessed were 0, 1, 2, 4, 8, 12, 24 and 48 hours after the addition of the bacterial suspension to the wells. Each test compound was tested in triplicate while ampicillin was tested in duplicate and this test was independently repeated. The bacterial strains used for the microdilution assays were chosen based on bactericidal activity evident during MBC testing. One strain from each of the categories of Staphylococcus in the isolate collection (methicillin-sensitive, methicillin resistant and coagulase negative) were selected as well as the ATCC reference strain for comparison. These strains were strains MSS 1, MSS 11, MRSA 9 and the ATCC 49775 reference strain.

[4] = APVMA, December 2013, MRL Standard 2012; cited from earlier work
[5] = Residue depletion of LP1369 in milk of treated mastitis quarters (Example 9); parameters: species or system lactating dairy cows; details: in vivo
Experimental: Data on concentrations of LP1369 in milk from 6 quarters for IVP 1 and IVP 2 treated at 6 occasions (6 consecutive milkings) after treatment was provided by the analytical laboratory at the School of Pharmacy, University of South Australia, Adelaide, SA, Australia. The limit of quantification (LoQ) of the method for LP1369 in milk was 0.088 mg/L. The Maximum Residues level (MRL) for LP1369 is 0.010 mg/kg according to the APVMA, December 2013, Agricultural and Veterinary Chemicals Code Instrument No. 4 (MRL Standard) 2012.
In milk samples where LP1369 levels were below the LoQ, LP1369 concentration was set to 0.0001 mg/L.
Therefore, the concentrations of LP1369 in whole milk were log-transformed before calculating means and standard deviations (weighted by the volume of milk produced by each animal) for each time point, using Microsoft Excel 2010.
The determination of the depletion of any substance from milk is affected by the size of the population studied. As the number of sampled cows in this study was small, the g′ factor (a factor that provides a 99% confidence interval so that results are likely to be representative of the population) was applied to the analysis. The possibility of dispersed data was minimised by fixing the g′ factor for a population of 20 animals.
The following assumptions were made. […]

| SMILES | MIC values (in words) [1] | antibacterial activity against the bovine mastitis isolates [1] | MIC90 [1] | bactericidal or bacteriostatic (>=3 log decrease in CFU/mL = bactericidal) ([2]; LP 6315: most concentrations) | growth at 1×MIC [3] | decrease in the number of viable bacteria ([2]; all concentrations tested) | Maximum Residues level (MRL) [4] | clearance from treated quarters with mastitis (in words) [5] |
| --- | --- | --- | --- | --- | --- | --- | --- | --- |
| CO[C@@H]1[C@@H](OC)[C@H](C)[C@@](O)(CC(=O)O)O[C@H]1[C@H](C)[C@H]1O[C@@]2(CC[C@@](C)([C@H]3CC[C@@](C)([C@@H]4O[C@@H]([C@H]5O[C@](C)(O)[C@H](C)C[C@@H]5C)C[C@@H]4O[C@@H]4C[C@H](OC)[C@@H](OC)[C@H](C)O4)O3)O2)C[C@H](O)[C@H]1C.N [LP 6315, Maduramicin] | low MIC values | observed | 4 µg/mL | bacteriostatic | after 48 hours this growth was no longer observed |  |  |  |
| CC[C@@H](C(=O)[C@@H](C)[C@@H](O)[C@H](C)CCc1ccc(C)c(O)c1C(=O)O)[C@H]1O[C@](CC)([C@H]2CC[C@](O)(CC)[C@H](C)O2)C[C@@H]1C [LP 1369, Lasalocid] | low MIC values | observed | 4 µg/mL (≈ 6.77 µM) |  |  | < 3 log10 | 0.010 mg/kg | cleared rapidly |
